In patent US10227331B2 (priority 2015, dated 2019):
pIC50: −log10 of the molar value.

How the values were obtained:
[1] = biological target: IMP-1 (Serratia marcescens, UniProt P52699); assay: biochemical; assay type: biochemical; conditions: CCF2-FA substrate, 2 hours at 25° C; read-out: IMP-1 IC50
How it was run: (§1)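 Two-hour, 25° C incubation of enzyme with inhibitor and CCF2-FA (7-hydroxycoumarin–cephalosporin–fluorescein). Fluorescence read-out; IC50 via 4-parameter fit.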

[2] = biological target: NDM-1 (Klebsiella pneumoniae, UniProt C7C422); assay: biochemical; assay type: biochemical; conditions: CCF2-FA substrate, 2 hours at 25° C; read-out: NDM-1 IC50
How it was run: as §1

[3] = tested on: Serratia marcescens expressing IMP-1 (CL5741); assay type: cell-based; conditions: with imipenem 1 μg/ml, 95% inhibition of bacterial growth; for Serratia marcescens MITC95: IMP-1 (CL5741)
How it was run: (§2)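 Colonies from overnight 35 °C blood-agar cultures were suspended in saline, diluted 1:100 into 1.1× CAMHB and exposed to test compound with or without imipenem at 1 μg/ml. After 22–24 h at 35 °C, absorbance was read to find the concentration restoring imipenem susceptibility.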

[4] = tested on: Escherichia coli expressing NDM-1 (CLB30005, CLB30016); assay type: cell-based; conditions: with imipenem 1 μg/ml, 95% inhibition of bacterial growth; for Escherichia coli MITC95: NDM-1 (CLB30016)
How it was run: as §2

[5] = tested on: Klebsiella pneumoniae expressing VIM-1 (IHMA599644); assay type: cell-based; conditions: with imipenem 1 μg/ml, 95% inhibition of bacterial growth; for Klebsiella pneumoniae MITC95: VIM-1 (IHMA599644)
How it was run: as §2

[6] = biological target: VIM-1 (Pseudomonas aeruginosa (strain ATCC 15692 / DSM 22644 / CIP 104116 / JCM 14847 / LMG 12228 / 1C / PRS 101 / PAO1), UniProt A0A0F7KYQ8); assay: biochemical; conditions: CCF2-FA substrate, 2 hours at 25° C
How it was run: as §1

[7] = tested on: P. aeruginosa expressing IMP-1, efflux− (MB9799); assay: Efflux: concentration of MBL inhibitor which restores susceptibility to imipenem; assay type: cell-based, Pseudomonas aeruginosa; conditions: imipenem at 2 μg/mL, in the presence of a class A, C, D serine β-lactamase inhibitor closely related to relebactam
From the text: (§3) The strain background is Pseudomonas aeruginosa PAO1.

[8] = tested on: P. aeruginosa expressing IMP-1, efflux+ (MB9798); assay type: cell-based, Pseudomonas aeruginosa; conditions: for P. aeruginosa expressing IMP-1, efflux+ (MB9798) MITC95: imipenem at 2 μg/mL, in the presence of a class A, C, D serine β-lactamase inhibitor closely related to relebactam; for Efflux ratio: ratio MITC95 PA_9798/MITC95 PA_9799
From the text: as §3

Sequence of IMP-1 (P52699 whole entry, looked up, species assumed): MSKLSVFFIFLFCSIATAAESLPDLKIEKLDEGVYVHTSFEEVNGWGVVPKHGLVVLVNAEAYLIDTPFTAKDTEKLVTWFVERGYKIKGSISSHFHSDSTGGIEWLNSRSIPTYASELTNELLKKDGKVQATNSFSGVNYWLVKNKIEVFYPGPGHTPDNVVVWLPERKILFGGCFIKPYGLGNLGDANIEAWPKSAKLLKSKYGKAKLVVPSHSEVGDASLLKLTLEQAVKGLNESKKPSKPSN
Sequence of NDM-1 (C7C422 whole entry, looked up, species assumed): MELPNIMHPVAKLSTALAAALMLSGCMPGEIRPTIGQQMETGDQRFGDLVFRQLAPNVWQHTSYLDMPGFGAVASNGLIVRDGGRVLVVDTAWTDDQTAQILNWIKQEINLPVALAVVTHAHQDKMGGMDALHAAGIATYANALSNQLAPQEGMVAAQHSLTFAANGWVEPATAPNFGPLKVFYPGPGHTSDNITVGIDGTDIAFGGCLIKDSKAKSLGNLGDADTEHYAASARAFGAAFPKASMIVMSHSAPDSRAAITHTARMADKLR

SMILES	pIC50 [1]	pIC50 [2]	Serratia marcescens expressing IMP-1 (CL5741) MITC95 [3] [µM]	Escherichia coli expressing NDM-1 (CLB30016) MITC95 [4] [µM]	Klebsiella pneumoniae expressing VIM-1 (IHMA599644) MITC95 [5] [µM]	pIC50 [6]	P. aeruginosa expressing IMP-1, efflux− (MB9799) MITC95 [7] [µM]	P. aeruginosa expressing IMP-1, efflux+ (MB9798) MITC95 [8] [µM]	Efflux ratio [8]	Serratia marcescens MITC95 [3] [µM]	Escherichia coli MITC95 [4] [µM]	Klebsiella pneumoniae MITC95 [5] [µM]
NCCS(=O)(=O)c1ccc(-c2ccc3c(c2)CNC3=O)c(-c2nnn[nH]2)c1S(N)(=O)=O.O=C(O)C(F)(F)F [Example 166, 2-((4-(1-oxoisoindolin-5-yl)-2-sulfamoyl-3-(1H-tetrazol-5-yl)phenyl)sulfonyl)ethanaminium 2,2,2-trifluoroacetate]	8.82	8.55	3.125	1.563	6.25	9.49	1.563	12.5	8.00			
Nc1nc2c(-c3ccc(S(=O)(=O)C4CCNCC4)c(S(N)(=O)=O)c3-c3nn[nH]n3)cccc2[s+]1[O-] (stereo not drawn) [Example 316, 3-(2-amino-1-oxidobenzo[d]thiazol-4-yl)-6-(piperidin-4-ylsulfonyl)-2-(2H-tetrazol-5-yl)benzenesulfonamide]	9.08	9.55				9.11	6.25	6.25	1.00	12.5	6.25	12.5
NS(=O)(=O)c1c(S(=O)(=O)C2CNC2)ccc([C@H]2CC[C@H](N)CC2)c1-c1nnn[nH]1 [Example 212, 3-((1r,4r)-4-aminocyclohexyl)-6-(azetidin-3-ylsulfonyl)-2-(1H-tetrazol-5-yl) benzenesulfonamide]	7.52	7.95	1.563	0.7813	1.563	9.06	0.7813	1.563	2.00			
NS(=O)(=O)c1c(S(=O)(=O)C2CNC2)ccc(-c2cnc(N3CCCC3)s2)c1-c1nnn[nH]1.O=C(O)C(F)(F)F [Example 121, 3-((4-(2-(pyrrolidin-1-yl)thiazol-5-yl)-2-sulfamoyl-3-(1H-tetrazol-5-yl)phenyl)sulfonyl)azetidin-1-ium 2,2,2-trifluoroacetate]	8.45	9.13	3.125	0.7813	6.25	8.84	1.563	200	127.96			
Nc1nc2c(-c3ccc(S(=O)(=O)[C@H]4CN[C@H](CO)C4)c(S(N)(=O)=O)c3-c3nn[nH]n3)cccc2s1 [Example 292, 3-(2-aminobenzo[d]thiazol-4-yl)-6-((3R,5S)-5-(hydroxymethyl)pyrrolidin-3-ylsulfonyl)-2-(2H-tetrazol-5-yl)benzenesulfonamide]	9.57	9.79				9.48	1.563	1.563	1.00	1.563	3.125	3.125
NCCS(=O)(=O)c1ccc(-c2cccc(NC(=O)CN)c2)c(-c2nn[nH]n2)c1S(N)(=O)=O [Example 333, 2-Amino-N-(4′-((2-aminoethyl)sulfonyl)-3′-sulfamoyl-2′-(2H-tetrazol-5-yl)-[1,1′-biphenyl]-3-yl)acetamide]	7.99	8.46				9.51	0.7813	6.25	8.00	1.563	0.3906	1.563
NC(=O)c1nc2c(-c3ccc(S(=O)(=O)C4CNC4)c(S(N)(=O)=O)c3-c3nn[nH]n3)cccc2[nH]1 [Example 254, 4-(4-(Azetidin-3-ylsulfonyl)-3-sulfamoyl-2-(2H-tetrazol-5-yl)phenyl)-1H-benzo[d]imidazole-2-carboxamide]	9.13	10.08				9.66	1.563	3.125	2.00	3.125	1.563	6.25
NC[C@H](N)CS(=O)(=O)c1ccc(-c2cccc3[nH]c(N)nc23)c(-c2nnn[nH]2)c1S(N)(=O)=O [Example 293, 3-(2-amino-1H-benzo[d]imidazol-4-yl)-6-((S)-2,3-diaminopropylsulfonyl)-2-(1H-tetrazol-5-yl)benzenesulfonamide]	8.88	9.80				9.33	0.7813	0.7813	1.00	1.563	0.3906	1.563
Nc1nc2cccc(-c3ccc(SC4CCNCC4)c(S(N)(=O)=O)c3-c3nn[nH]n3)c2[nH]1 [Example 3, 3-(2-amino-3H-benzo[d]imidazol-4-yl)-6-(piperidin-4-ylthio)-2-(2H-tetrazol-5-yl)benzenesulfonamide]	6.96	8.49	6.25	0.125	25	7.10	2.563	25	9.75			
NC[C@H](O)CS(=O)(=O)c1ccc(-c2ccc(N)nc2)c(-c2nn[nH]n2)c1S(N)(=O)=O [Example 365, (S)-6-((3-amino-2-hydroxypropyl)sulfonyl)-3-(6-aminopyridin-3-yl)-2-(2H-tetrazol-5-yl) benzenesulfonamide]	8.92	8.82				9.20	0.7813	1.172	1.50	0.7813	0.293	2.344
NS(=O)(=O)c1c(S(=O)(=O)C2CNC2)ccc(-c2cccc(C3CCC(=O)N3)c2)c1-c1nnn[nH]1.O=C(O)C(F)(F)F (stereo not drawn) [Example 125, 3-((3′-(5-oxopyrrolidin-2-yl)-3-sulfamoyl-2-(1H-tetrazol-5-yl)-[1,1′-biphenyl]-4-yl)sulfonyl)azetidin-1-ium 2,2,2-trifluoroacetate]	8.28	8.40	6.25	6.25	6.25	8.60	3.125	50	16.00			
